Tested on: HepG2 viability, CellTiter-Glo ATP luminescence, 72 h
Assay: viability loss in human hepatoma cells – cell-based, CellTiter-Glo luminescence, cherry-pick, set 2, cytotoxicity control, dose response (AID 743395)

Row | Compound | AC35 [µM]
1 | O=[N+]([O-])c1ccc(N2CCOCC2)c2c1no[n+]2[O-] | 8.72
2 | NS(=O)(=O)c1ccc(CCNc2nn3c(-c4cccc(OC(F)(F)F)c4)cnc3s2)cc1 | 16.7
3 | COc1ccc(S(=O)(=O)N2CC[C@@H]3[C@H](CO)N(C)c4ccc(-c5ccc(F)cc5)cc4[C@@H]32)cc1 | 2.21
4 | CCN(CC)CCCNc1ccc2ncn3c4ccc(O)cc4c(=O)c1c23 | 1.03
5 | CCOc1ccc(-c2cc(C(=O)N3CCN(c4ccccn4)CC3)c3ccccc3n2)cc1 | 10.9
6 | Cc1ccc(S(=O)(=O)NCCCNS(=O)(=O)c2ccc(C)cc2)cc1 | 20
7 | O=Nc1ccc(O)c2ncccc12 | 5.57
8 | Cc1ccnc(N2C(=O)c3cccc4c([N+](=O)[O-])ccc(c34)C2=O)c1 | 14.9
9 | COc1ccc(OC)c(Nc2cc(C)nc3ccc(C)cc23)c1 | 2.93
10 | COc1cccc(N=Nc2ccc3cccnc3c2O)c1 | 4.42
11 | CC(=O)c1cccc(Nc2c3c(nc4ccccc24)CCC3)c1 | 17.9
12 | O=C1NC(=Nc2ccc(O)cc2)S/C1=C/c1ccco1 | 11.7
13 | CC1(C(=O)NCc2ccccc2)Cc2c(-c3ccc(C(N)=O)cc3)ccnc2O1 (stereo unspecified) | 13.8
14 | C/C(=N\NC(=O)c1cc(-c2cccs2)nc2ccccc12)c1ccccn1 | 1.63
15 | c1ccc(CCNc2nc(-c3ccccn3)nc3ccccc23)cc1 | 4.46
16 | CCCC(=O)Nc1nc2ccc(NC(=O)c3c(F)c(F)c(OC)c(F)c3F)cc2s1 | 7.54
17 | Clc1ccc(SCc2cc(N3CCOCC3)nc(-c3ccccn3)n2)cc1 | 9
18 | O=C(N/N=C/c1cccs1)c1cc(C2CC2)nc2ccccc12 | 21.1
19 | CCOC(=O)c1c(NC(=O)C(=O)N/N=C/c2ccccc2O)sc2c1CCCCC2 | 13.7

Row | Compound | AC35 [µM]
20 | COc1cc(/C=C2/SC(=Nc3ccc(O)cc3)NC2=O)cc(OC)c1O | 14.7
21 | COc1ccc(-c2csc(NC(=S)NC(=O)/C=C/c3ccco3)n2)cc1OC | 14.3
22 | C[C@H]1CN([C@@H](C)CO)S(=O)(=O)c2ccc(C#CC3CCCCC3)cc2O[C@H]1CN(C)Cc1cccnc1 | 22.2
23 | Cc1ccc(-c2nn(-c3ccccc3)cc2C(=O)N2CCN(c3ccccn3)CC2)cc1 | 12.3
24 | CC(C)(C)c1ccc(/C=C/C(=O)c2ccc(NC3=NCCCS3)cc2)cc1 | 18.2
25 | Cc1cc(Br)cc(/C=N/NC(=O)c2ccc3c(c2)OCO3)c1O | 8
26 | COc1cccc(C(=O)Nc2sc3c(c2C#N)CCN(C(C)=O)C3)c1 | 11.6
27 | C[C@@H]1CN([C@@H](C)CO)C(=O)c2cc(C#CCN(C)C)cnc2O[C@H]1CN(C)Cc1ccc(-c2ccccc2)cc1 | 11.5
28 | COc1cccc2c1C(=O)c1c(O)c3c(c(O)c1C2=O)C[C@](O)(C(C)=O)C[C@H]3O[C@@H]1C[C@@H](N)[C@@H](O)[C@@H](C)O1 | 0.0738
29 | COc1cc(/C=C(\C#N)c2nc3ccccc3[nH]2)cc(OC)c1O | 17.2
30 | Cc1ccc2[nH]c(C(=O)N/N=C/c3ccccc3O)c(C)c2c1 | 2.41
31 | CCN(CC)c1ccc(/C=N/NC(=O)c2ccco2)c(O)c1 | 1.13
32 | CCN(c1cccc(C)c1)S(=O)(=O)c1ccc(-c2cc(C)no2)s1 | 8.73
33 | COc1ccc2c3c([nH]c2c1)[C@H](CO)N(C(=O)C1CCOCC1)CC31CCN(Cc2cccc(F)c2)CC1 | 2.74
34 | CC12CCC(CC1O)C2C(=O)O (stereo unspecified) | 17.9
35 | CC(=NNC(=O)c1ccncc1)c1ccc2ccccc2c1O | 2.59
36 | C=C1SC(Nc2c(C)cc(C)cc2C)=NC12CCCCC2 | 17.2
37 | COc1ccc2c3c(n(C)c2c1)[C@H](CO)N(C(=O)C1CC1)CC31CCN(Cc2cccc(F)c2)CC1 | 4.68
38 | Oc1c(Cl)cc(CN2CCOCC2)c2cccnc12 | 7.67

Row | Compound | AC35 [µM]
39 | COc1ccc([C@H]2CC(=O)C=C(c3c(OC)cccc3OC)C2)cc1 | 3.37
40 | Nc1ccn([C@@H]2O[C@H](CO)[C@@H](O)[C@@H]2O)c(=O)n1 | 7.89
41 | C[C@@H]1CN([C@@H](C)CO)C(=O)c2cc(NS(=O)(=O)c3ccc(Cl)cc3)ccc2O[C@@H]1CN(C)Cc1ccc(C(F)(F)F)cc1 | 16.4
42 | O=c1c2ccccc2oc2cc(-c3ccc4[nH]ccc4c3)ccc12 | 4.72
43 | CCC(=O)N1CC2(CCN(Cc3ccc(Cl)cc3)CC2)c2c([nH]c3cc(OC)ccc23)[C@H]1CO | 9.3
44 | Cn1nccc1C(=O)N/N=C/c1c(O)ccc2ccccc12 | 4.13
45 | COc1ccc(-c2cc(NC=O)c3ncc(-c4ccc(OC)c(OC)c4)n3c2)cc1 | 6.95
46 | O=C(Nc1ccccc1)N1CCCCN2[C@@H](CO)[C@H](c3ccc(C#Cc4ccccc4)cc3)[C@@H]2C1 | 10.9
47 | O=C(CN1CCCC1)N/N=C/c1c(O)ccc2ccccc12 | 12.6
48 | COc1ccc(CNS(=O)(=O)c2cc(-c3cc(C)no3)ccc2C(C)C)cc1 | 7.14
49 | CCCC(=O)Nc1ccc2c(c1)nc(CN1CCN(C(=O)OCC)CC1)n2CC | 18.9
50 | Nc1nc(Cl)nc2c1ncn2C1CC(O)C(CO)O1 (stereo unspecified) | 4.65
51 | CCOc1ccc2[nH]c(C(=O)N/N=C/c3ccc(OC)cc3)cc2c1 | 4.77
52 | CC(=NNC(=S)N1CCCCC1)c1cccc(C)n1 | 15.6
53 | COC(=O)/C=C/c1ccccc1S(=O)(=O)N(Cc1ccccc1)Cc1ccco1 | 15.4
54 | Cc1ccc(C2NC(=O)c3ccccc3N2)c(C)c1 (stereo unspecified) | 13.8
55 | CCN(CC)c1ccc(/C=N/NC(=O)c2cnccn2)cc1 | 6.68
56 | N#C/C(=C/c1ccc(N2CCCCC2)o1)C(=O)Nc1ccc2ccccc2c1 | 21.1

— PubChem BioAssay AID743395 (Broad Institute, 2014)
